Measurements from ChEMBL document CHEMBL3352338, “Development and biological evaluation of potent and selective c-KIT(D816V) inhibitors” (J Med Chem, 2014).
The source made the active and inactive calls. No cut-off for these calls is given here.

Experiments:
[1] = target: Hepatocyte growth factor receptor (Homo sapiens) (UniProt P08581); assay: Inhibition of MET (unknown origin) at 1 uM by KINOMEscanning assay relative to control; values are per cent of control
[2] = target: Fibroblast growth factor receptor 2 (Homo sapiens) (UniProt P21802); assay: Inhibition of FGFR2 (unknown origin) at 1 uM by KINOMEscanning assay relative to control; values are per cent of control
[3] = target: Focal adhesion kinase 1 (Homo sapiens) (UniProt Q05397); assay: Inhibition of FAK (unknown origin) at 1 uM by KINOMEscanning assay relative to control; values are per cent of control
[4] = target: Epidermal growth factor receptor (Homo sapiens) (UniProt P00533); assay: Inhibition of EGFR (unknown origin) at 1 uM by KINOMEscanning assay relative to control; values are per cent of control
[5] = system: Hepatocyte growth factor receptor (Homo sapiens), P08581 [M1250T]; assay: Inhibition of MET M1250T mutant (unknown origin) at 1 uM by KINOMEscanning assay relative to control; values are per cent of control
[6] = target: T1, 3-phosphoinositide-dependent protein kinase 1 (Homo sapiens) (UniProt O15530); assay: Inhibition of PDPK1 (unknown origin) at 1 uM by KINOMEscanning assay relative to control; values are per cent of control
T1 sequence (whole entry): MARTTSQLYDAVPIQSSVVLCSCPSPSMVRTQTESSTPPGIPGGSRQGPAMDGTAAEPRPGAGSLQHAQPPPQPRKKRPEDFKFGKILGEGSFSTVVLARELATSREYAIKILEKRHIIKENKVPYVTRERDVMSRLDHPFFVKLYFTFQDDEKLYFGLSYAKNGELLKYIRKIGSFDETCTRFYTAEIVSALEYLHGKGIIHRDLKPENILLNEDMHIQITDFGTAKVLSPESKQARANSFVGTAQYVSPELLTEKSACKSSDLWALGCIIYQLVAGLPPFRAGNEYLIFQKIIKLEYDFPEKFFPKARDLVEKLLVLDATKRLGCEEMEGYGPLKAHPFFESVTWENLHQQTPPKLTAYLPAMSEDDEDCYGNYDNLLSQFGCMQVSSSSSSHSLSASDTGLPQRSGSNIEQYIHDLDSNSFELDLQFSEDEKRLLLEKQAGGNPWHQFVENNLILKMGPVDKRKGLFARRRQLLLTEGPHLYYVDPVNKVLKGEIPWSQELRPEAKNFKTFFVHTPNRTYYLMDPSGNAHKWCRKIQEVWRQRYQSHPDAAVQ

[7] = target: Platelet-derived growth factor receptor alpha (Homo sapiens) (UniProt P16234); assay: Inhibition of PDGFRalpha (unknown origin) at 1 uM by KINOMEscanning assay relative to control; values are per cent of control
[8] = target: T2, Mast/stem cell growth factor receptor Kit (Homo sapiens, UniProt P10721); assay: Inhibition of wild type c-KIT (unknown origin)
[9] = target: High affinity nerve growth factor receptor (Homo sapiens) (UniProt P04629); assay: Inhibition of TRKA (unknown origin) at 1 uM by KINOMEscanning assay relative to control; values are per cent of control
[10] = target: Dual specificity mitogen-activated protein kinase kinase 1 (Homo sapiens) (UniProt Q02750); assay: Inhibition of MEK1 (unknown origin) at 1 uM by KINOMEscanning assay relative to control; values are per cent of control
[11] = target: Phosphatidylinositol 4,5-bisphosphate 3-kinase catalytic subunit alpha isoform (Homo sapiens, UniProt P42336); assay: Inhibition of PI3Kalpha (unknown origin) at 1 uM by KINOMEscanning assay relative to control; values are per cent of control
[12] = target: Cyclin-dependent kinase 4 (Homo sapiens) (UniProt P11802); assay: Inhibition of CDK4 (unknown origin) at 1 uM by KINOMEscanning assay relative to control; values are per cent of control
[13] = target: Dual specificity mitogen-activated protein kinase kinase 2 (Homo sapiens) (UniProt P36507); assay: Inhibition of MEK2 (unknown origin) at 1 uM by KINOMEscanning assay relative to control; values are per cent of control
[14] = system: Mast/stem cell growth factor receptor Kit (Homo sapiens), P10721 [D816H]; assay: Inhibition of c-KIT D816H mutant (unknown origin) at 1 uM by KINOMEscanning assay relative to control; values are per cent of control
[15] = target: 5'-AMP-activated protein kinase catalytic subunit alpha-2 (Homo sapiens) (UniProt P54646); assay: Inhibition of AMPKalpha 2 (unknown origin) at 1 uM by KINOMEscanning assay relative to control; values are per cent of control
[16] = target: Serine/threonine-protein kinase PLK1 (Homo sapiens) (UniProt P53350); assay: Inhibition of PLK1 (unknown origin) at 1 uM by KINOMEscanning assay relative to control; values are per cent of control
[17] = target: Calcium/calmodulin-dependent protein kinase type 1 (Homo sapiens) (UniProt Q14012); assay: Inhibition of CAMK1 (unknown origin) at 1 uM by KINOMEscanning assay relative to control; values are per cent of control
[18] = target: Serine/threonine-protein kinase pim-1 (Homo sapiens) (UniProt P11309); assay: Inhibition of PIM1 (unknown origin) at 1 uM by KINOMEscanning assay relative to control; values are per cent of control
[19] = target: Vascular endothelial growth factor receptor 1 (Homo sapiens) (UniProt P17948); assay: Inhibition of FLT1 (unknown origin) at 1 uM by KINOMEscanning assay relative to control; values are per cent of control
[20] = system: Serine/threonine-protein kinase B-raf (Homo sapiens), P15056 [V600E]; assay: Inhibition of BRAF V600E mutant (unknown origin) at 1 uM by KINOMEscanning assay relative to control; values are per cent of control
[21] = target: T2, Mast/stem cell growth factor receptor Kit; settings: 5 uM
Description: Inhibition of c-KIT in imatinib-resistant human HMC-1.2 cells assessed as suppression of Erk phosphorylation at 5 uM after 1 hr by Western immunoblotting analysis

[22] = target: T2, Mast/stem cell growth factor receptor Kit; settings: 5 uM; remark: listed apart in the source
Description: Inhibition of c-KIT in imatinib-resistant human HMC-1.2 cells assessed as suppression of Akt phosphorylation at 5 uM after 1 hr by Western immunoblotting analysis

Sequence of High affinity nerve growth factor receptor (Homo sapiens) (P04629 33-796 limits assumed): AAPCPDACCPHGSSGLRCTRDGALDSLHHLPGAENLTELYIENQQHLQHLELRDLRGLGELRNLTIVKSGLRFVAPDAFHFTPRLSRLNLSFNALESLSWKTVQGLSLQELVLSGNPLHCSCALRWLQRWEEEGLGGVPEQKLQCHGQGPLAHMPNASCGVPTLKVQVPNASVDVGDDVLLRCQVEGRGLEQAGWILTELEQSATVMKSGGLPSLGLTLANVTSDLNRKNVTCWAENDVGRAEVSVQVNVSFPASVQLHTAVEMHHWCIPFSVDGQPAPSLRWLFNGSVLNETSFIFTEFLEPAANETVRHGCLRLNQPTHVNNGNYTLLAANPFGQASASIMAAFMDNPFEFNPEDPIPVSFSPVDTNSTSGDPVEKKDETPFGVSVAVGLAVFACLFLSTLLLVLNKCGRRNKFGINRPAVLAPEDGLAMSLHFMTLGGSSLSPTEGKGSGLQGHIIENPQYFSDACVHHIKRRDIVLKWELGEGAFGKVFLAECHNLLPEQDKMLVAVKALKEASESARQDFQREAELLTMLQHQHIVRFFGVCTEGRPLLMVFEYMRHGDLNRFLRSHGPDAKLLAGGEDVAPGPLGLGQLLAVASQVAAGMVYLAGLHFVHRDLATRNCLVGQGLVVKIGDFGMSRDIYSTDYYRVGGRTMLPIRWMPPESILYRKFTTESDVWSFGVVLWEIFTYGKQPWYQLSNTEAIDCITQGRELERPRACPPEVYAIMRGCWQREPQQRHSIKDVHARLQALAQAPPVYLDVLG
Sequence of Focal adhesion kinase 1 (Homo sapiens) (Q05397 2-1052 limits assumed): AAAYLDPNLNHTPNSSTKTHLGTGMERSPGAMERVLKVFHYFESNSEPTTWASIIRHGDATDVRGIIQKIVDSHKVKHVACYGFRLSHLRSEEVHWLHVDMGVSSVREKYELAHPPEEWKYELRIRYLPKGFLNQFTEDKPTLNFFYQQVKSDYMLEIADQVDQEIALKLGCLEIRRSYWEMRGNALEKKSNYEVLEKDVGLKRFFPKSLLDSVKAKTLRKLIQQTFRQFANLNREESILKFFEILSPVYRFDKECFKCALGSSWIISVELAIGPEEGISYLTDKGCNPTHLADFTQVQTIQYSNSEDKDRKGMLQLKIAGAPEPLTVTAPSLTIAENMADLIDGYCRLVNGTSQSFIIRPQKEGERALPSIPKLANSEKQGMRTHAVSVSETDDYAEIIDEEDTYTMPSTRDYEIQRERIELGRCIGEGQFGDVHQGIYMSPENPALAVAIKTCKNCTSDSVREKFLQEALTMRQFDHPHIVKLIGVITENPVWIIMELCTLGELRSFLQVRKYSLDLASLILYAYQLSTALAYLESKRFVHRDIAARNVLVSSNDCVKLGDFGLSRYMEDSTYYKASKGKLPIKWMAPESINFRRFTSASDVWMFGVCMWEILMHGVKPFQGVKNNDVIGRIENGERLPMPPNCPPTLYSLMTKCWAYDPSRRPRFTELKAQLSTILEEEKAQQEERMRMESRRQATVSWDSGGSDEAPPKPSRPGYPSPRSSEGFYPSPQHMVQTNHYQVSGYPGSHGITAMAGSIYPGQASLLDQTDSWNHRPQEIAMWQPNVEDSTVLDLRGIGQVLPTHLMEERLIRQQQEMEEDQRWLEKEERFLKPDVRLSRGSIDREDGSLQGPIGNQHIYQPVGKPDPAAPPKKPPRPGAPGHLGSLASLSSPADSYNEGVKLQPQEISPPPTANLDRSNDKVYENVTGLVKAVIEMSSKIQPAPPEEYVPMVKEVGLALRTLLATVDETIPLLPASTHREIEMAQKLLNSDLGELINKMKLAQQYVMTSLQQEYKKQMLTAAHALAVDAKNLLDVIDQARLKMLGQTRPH
Sequence of Hepatocyte growth factor receptor (Homo sapiens) (P08581 whole entry): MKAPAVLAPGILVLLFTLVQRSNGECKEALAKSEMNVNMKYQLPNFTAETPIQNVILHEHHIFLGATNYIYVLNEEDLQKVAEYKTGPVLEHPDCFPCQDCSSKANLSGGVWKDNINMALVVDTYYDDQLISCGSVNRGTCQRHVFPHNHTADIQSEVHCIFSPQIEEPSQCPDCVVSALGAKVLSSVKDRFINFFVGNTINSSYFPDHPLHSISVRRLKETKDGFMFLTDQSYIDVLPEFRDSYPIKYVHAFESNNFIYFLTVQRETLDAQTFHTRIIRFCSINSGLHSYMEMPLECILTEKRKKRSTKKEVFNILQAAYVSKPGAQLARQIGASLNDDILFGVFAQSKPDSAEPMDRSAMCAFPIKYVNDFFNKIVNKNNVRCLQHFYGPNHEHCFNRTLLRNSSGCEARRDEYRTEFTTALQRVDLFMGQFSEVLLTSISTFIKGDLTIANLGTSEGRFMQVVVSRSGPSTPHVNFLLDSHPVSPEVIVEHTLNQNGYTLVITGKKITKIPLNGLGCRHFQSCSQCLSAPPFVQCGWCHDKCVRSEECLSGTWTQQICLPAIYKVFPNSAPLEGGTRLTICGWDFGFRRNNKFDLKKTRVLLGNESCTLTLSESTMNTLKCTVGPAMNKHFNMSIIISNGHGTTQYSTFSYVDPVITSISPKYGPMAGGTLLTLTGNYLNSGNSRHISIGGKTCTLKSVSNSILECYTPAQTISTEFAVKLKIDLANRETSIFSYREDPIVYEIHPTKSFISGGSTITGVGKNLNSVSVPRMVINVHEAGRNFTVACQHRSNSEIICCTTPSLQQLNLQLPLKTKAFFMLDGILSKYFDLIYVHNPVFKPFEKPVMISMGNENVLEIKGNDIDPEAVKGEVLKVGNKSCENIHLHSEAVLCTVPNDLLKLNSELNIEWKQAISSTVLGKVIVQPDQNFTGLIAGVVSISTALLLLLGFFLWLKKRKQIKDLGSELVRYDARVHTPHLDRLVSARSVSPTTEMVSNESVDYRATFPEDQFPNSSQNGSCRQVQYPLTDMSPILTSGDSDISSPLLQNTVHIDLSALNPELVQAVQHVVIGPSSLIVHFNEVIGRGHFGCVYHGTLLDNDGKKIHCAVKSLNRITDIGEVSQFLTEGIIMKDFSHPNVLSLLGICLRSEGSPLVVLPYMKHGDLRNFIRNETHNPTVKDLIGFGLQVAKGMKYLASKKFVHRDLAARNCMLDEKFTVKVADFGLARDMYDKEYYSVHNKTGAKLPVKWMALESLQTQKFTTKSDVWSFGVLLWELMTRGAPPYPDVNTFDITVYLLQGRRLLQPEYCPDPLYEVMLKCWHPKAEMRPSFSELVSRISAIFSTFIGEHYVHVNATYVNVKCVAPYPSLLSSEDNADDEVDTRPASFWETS
Sequence of Calcium/calmodulin-dependent protein kinase type 1 (Homo sapiens) (Q14012 whole entry, looked up): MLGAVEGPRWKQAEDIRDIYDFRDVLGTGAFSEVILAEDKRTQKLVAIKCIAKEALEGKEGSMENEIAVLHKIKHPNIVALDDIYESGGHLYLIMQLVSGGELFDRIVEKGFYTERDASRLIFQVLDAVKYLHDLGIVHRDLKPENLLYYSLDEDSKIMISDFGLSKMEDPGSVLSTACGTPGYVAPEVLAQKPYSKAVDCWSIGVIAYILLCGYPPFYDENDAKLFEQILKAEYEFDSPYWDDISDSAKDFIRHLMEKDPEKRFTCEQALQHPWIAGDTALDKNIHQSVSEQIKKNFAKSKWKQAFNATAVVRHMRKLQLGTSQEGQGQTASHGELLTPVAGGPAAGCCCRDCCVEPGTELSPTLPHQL
Sequence of Dual specificity mitogen-activated protein kinase kinase 1 (Homo sapiens) (Q02750 whole entry, canonical isoform): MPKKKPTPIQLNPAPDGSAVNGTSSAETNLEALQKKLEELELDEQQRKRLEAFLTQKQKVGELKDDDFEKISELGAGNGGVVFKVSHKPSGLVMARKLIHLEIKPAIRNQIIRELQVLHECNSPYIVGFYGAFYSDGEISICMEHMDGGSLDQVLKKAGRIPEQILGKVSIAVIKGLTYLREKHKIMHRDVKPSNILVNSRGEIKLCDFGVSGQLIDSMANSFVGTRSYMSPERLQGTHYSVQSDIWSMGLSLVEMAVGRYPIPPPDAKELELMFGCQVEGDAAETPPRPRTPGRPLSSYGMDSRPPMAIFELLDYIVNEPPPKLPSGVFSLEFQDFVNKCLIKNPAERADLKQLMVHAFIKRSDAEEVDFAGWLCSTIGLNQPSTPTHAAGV
Sequence of Cyclin-dependent kinase 4 (Homo sapiens) (P11802 whole entry): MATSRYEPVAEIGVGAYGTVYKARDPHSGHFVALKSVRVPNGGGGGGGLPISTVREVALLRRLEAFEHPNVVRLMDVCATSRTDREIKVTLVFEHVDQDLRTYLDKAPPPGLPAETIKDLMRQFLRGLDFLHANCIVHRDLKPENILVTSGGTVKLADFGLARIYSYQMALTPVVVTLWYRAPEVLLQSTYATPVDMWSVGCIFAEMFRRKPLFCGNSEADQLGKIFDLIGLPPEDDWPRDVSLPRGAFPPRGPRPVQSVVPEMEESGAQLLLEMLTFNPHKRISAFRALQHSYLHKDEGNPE
Sequence of Fibroblast growth factor receptor 2 (Homo sapiens) (P21802 22-821 limits assumed): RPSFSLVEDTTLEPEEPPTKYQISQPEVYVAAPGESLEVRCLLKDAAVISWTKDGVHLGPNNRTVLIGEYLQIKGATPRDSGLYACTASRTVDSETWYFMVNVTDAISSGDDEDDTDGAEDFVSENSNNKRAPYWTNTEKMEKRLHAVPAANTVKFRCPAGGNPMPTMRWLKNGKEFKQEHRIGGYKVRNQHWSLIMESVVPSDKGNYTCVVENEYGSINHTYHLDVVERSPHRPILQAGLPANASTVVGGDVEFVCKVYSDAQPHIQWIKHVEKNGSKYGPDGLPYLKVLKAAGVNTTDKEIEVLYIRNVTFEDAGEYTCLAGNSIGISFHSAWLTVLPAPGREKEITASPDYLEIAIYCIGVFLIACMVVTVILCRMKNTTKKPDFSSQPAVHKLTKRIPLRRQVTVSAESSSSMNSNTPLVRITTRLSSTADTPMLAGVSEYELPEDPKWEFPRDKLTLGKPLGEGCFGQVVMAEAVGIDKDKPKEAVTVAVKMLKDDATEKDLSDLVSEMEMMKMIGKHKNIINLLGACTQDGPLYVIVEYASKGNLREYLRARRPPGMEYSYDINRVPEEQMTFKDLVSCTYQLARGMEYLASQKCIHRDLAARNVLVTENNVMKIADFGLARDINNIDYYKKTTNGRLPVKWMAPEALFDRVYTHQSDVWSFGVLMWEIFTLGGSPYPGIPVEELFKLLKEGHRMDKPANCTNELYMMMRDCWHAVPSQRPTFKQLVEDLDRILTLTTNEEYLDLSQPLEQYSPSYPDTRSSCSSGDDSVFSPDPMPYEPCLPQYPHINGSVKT

residual activity [1] [%] | residual activity [2] [%] | residual activity [3] [%] | residual activity [4] [%] | residual activity [5] [%] | residual activity [6] [%] | residual activity [7] [%] | IC50 [8] [nM] | residual activity [9] [%] | residual activity [10] [%] | residual activity [11] [%] | residual activity [12] [%] | residual activity [13] [%] | residual activity [14] [%] | residual activity [15] [%] | residual activity [16] [%] | residual activity [17] [%] | residual activity [18] [%] | residual activity [19] [%] | residual activity [20] [%] | further results | SMILES
54 | 89 | 88 | 73 | 53 | 31 | 36 | 9140 | 11 | 59 | 100 | 82 | 72 | 25 | 82 | 84 | 62 | 27 | 56 | 66 |  | COc1ccc(-c2c[nH]c3ncc(-c4ccc(C(=O)N5CCOCC5)c(N)c4)cc23)cc1OC
35 | 100 | 92 | 70 | 80 | 100 | 65 |  | 83 | 85 | 71 | 85 | 74 | 85 | 77 | 100 | 53 | 88 | 36 | 34 | inhibition [21]: Active; inhibition [22]: Active | COc1cc(-c2c[nH]c3ncc(-c4cccc(N)c4)cc23)cc(OC)c1OC
47 | 100 | 93 | 43 | 51 | 91 | 21 | > 10000 | 11 | 76 | 71 | 81 | 90 | 51 | 87 | 84 | 71 | 71 | 43 | 78 | inhibition [21]: Active; inhibition [22]: Active | COc1ccc(-c2cnc3[nH]cc(-c4ccc(OC)c(OC)c4)c3c2)cc1N
34 | 100 | 88 | 70 | 35 | 65 | 16 | 142 | 26 | 74 | 66 | 85 | 92 | 16 | 81 | 98 | 63 | 68 | 81 | 88 | inhibition [21]: Active; inhibition [22]: Active | COc1ccc(-c2cnc3[nH]cc(-c4ccc(OC)c(OC)c4)c3c2)cc1OC
54 | 100 | 92 | 68 | 86 | 76 | 59 | 2750 | 46 | 78 | 75 | 95 | 93 | 25 | 86 | 99 | 61 | 71 | 75 | 82 | inhibition [21]: Active; inhibition [22]: Active | COc1ccc(-c2c[nH]c3ncc(-c4cc(OC)c(OC)c(OC)c4)cc23)cc1OC
